Results on 28 compounds are retold here after patent publication US20020026053A1, “Novel 3-(substituted) -2- indolinones compounds and use thereof as inhibitors of protein kinase activity” (priority 1997, published 2002).

Values joined by “and” are separate entries in the source; they are usually repeats but may differ in a detail not shown here. Equal entries are not always repeated.

T1 sequence (P08581 with tags, fused parts or gaps): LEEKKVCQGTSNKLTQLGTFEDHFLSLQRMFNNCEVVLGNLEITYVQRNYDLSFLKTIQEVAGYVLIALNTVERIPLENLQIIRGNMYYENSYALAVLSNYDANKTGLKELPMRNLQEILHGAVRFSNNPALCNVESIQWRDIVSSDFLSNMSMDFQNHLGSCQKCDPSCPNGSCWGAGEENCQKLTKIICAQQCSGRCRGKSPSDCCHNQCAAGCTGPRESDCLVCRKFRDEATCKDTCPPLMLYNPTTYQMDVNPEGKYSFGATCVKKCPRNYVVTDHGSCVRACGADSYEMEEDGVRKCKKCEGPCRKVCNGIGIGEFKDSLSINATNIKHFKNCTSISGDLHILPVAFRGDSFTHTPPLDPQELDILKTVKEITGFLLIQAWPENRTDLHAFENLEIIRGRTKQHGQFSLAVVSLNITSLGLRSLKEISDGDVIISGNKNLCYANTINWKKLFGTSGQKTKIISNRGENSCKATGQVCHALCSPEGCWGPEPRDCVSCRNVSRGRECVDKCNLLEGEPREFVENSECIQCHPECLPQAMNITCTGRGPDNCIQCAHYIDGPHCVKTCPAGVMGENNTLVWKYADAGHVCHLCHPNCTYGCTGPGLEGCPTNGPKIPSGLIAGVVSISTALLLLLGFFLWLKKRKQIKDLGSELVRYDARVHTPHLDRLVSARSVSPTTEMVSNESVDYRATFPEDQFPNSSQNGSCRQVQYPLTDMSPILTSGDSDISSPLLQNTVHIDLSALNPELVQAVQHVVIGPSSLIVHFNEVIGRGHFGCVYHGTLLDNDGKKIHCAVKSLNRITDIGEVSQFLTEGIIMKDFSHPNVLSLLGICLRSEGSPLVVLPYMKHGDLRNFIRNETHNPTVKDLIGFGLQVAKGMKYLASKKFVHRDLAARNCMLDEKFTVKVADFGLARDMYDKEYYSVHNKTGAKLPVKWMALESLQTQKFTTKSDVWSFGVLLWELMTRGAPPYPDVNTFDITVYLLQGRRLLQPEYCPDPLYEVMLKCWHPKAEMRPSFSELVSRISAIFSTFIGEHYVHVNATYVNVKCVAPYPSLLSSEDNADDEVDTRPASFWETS

The test has as its target T1, Met receptor (EGFR/Met chimeric cells, EMR) (Homo sapiens, UniProt P08581).
T1 construct: expressed in transfected cells; the other entry of the earlier key: EGFR (P00533, Epidermal growth factor receptor)
As to the kind of experiment: Met Autophosphorylation Assay. Format: biochemical. On the procedure: Met Autophosphorylation Assay
This assay determines Met tyrosine kinase activity by analyzing Met protein tyrosine kinase levels on the Met receptor.
a. HNTG (5× stock solution): Dissolve 23.83 g HEPES and 43.83 g NaCl in about 350 ml dH2O. Adjust pH to 7.2 with HCl or NaOH, add 500 ml glycerol and 10 ml Triton X-100, mix, add dH2O to 1 L total volume. To make 1 L of 1× working solution add 200 ml 5× stock solution to 800 ml dH2O, check and adjust pH as necessary, store at 4° C.
b. PBS (Dulbecco's Phosphate-Buffered Saline), Gibco Cat. # 450-1300EB (1× solution).
c. Blocking Buffer: in 500 ml dH2O place 100 g BSA, 12.1 g Tris-pH7.5, 58.44 g NaCl and 10 ml Tween-20, dilute to 1 L total volume.
d. Kinase Buffer: To 500 ml dH2O add 12.1 g TRIS (pH 7.2), 58.4 g NaCl, 40.7 g MgCl2 and 1.9 g EGTA; bring to 1 L total volume with dH2O.
e. PMSF (Phenylmethylsulfonyl fluoride), Sigma Cat. # P-7626, to 435.5 mg, add 100% ethanol to 25 ml total volume, vortex.
f. ATP (Bacterial Source), Sigma Cat. # A-7699, store powder at −20° C.; to make up solution for use, dissolve 3.31 mg in 1 ml dH2O.
g. RC-20H HRPO Conjugated Anti-Phosphotyrosine, Transduction Laboratories Cat. # E120H.
h. Pierce 1-Step Turbo™ B-ELISA (3,3′,5,5′-tetramethylbenzidine, Pierce Cat. # 34022.
i. H2SO4, add 1 ml conc.(18 N) to 35 ml dH2O.
j. TRIS HCL, Fischer Cat. # BP152-5; to 121.14 g of material, add 600 ml MilliQ H2O, adjust pH to 7.5 (or 7.2) with HCl, bring volume to 1 L with MilliQ H2O.
k. NaCl, Fischer Cat. # S271-10, make up 5M solution.
m. Na3VO4, Fischer Cat. # S454-50, to 1.8 g material add 80 ml MilliQ H2O, adjust pH to 10.0 with HCl or NaOH, boil in microwave, cool, check pH, repeat procedure until pH stable at 10.0, add MilliQ H2O to 100 ml total volume, make 1 ml aliquots and store at −80° C.
n. MgCl2, Fischer Cat. # M33-500, make up 1M solution.
o. HEPES, Fischer Cat. # BP310-500, to 200 ml MilliQ H2O, add 59.6 g material, adjust pH to 7.5, bring volume to 250 ml total, sterile filter.
p. Albumin, Bovine (BSA), Sigma Cat. # A-4503, to 30 grams material add sterile distilled water to make total volume of 300 ml, store at 4° C.
q. TBST Buffer: to approx. 900 ml dH2O in a 1 L graduated cylinder add 6.057 g TRIS and 8.766 g NaCl, when dissolved, adjust pH to 7.2 with HCl, add 1.0 ml Triton X-100 and bring to 1 L total volume with dH2O.
r. Goat Affinity purified antibody Rabbit IgG (whole molecule), Cappel Cat. # 55641.
s. Anti h-Met (C-28) rabbit polyclonal IgG antibody, Santa Cruz Chemical Cat. # SC-161.
t. Transiently Transfected EGFR/Met chimeric cells (EMR) (Komada, et al., Oncogene, 8:2381-2390 (1993).
u. Sodium Carbonate Buffer, ([…], Fischer Cat. # S495) to 10.6 g material add 800 ml MilliQ H2O, when dissolved adjust pH to 9.6 with NaOH, bring up to 1 L total volume with MilliQ H2O, filter, store at 4° C.
All of the following steps are conducted at room temperature unless it is specifically indicated otherwise. All ELISA plate washing is by rinsing 4× with TBST.
This procedure can be performed the night before or immediately prior to the start of receptor capture.
1. Quick thaw lysates in a 37° C. waterbath with a swirling motion until the last crystals disappear.
2. Lyse cell pellet with 1× HNTG containing 1 mM PMSF. Use 3 ml of HNTG per 15 cm dish of cells. Add ½ the calculated HNTG volume, vortex the tube for 1 min., add the remaining amount of HNTG, vortex for another min.
3. Balance tubes, centrifuge at 10,000× g for 10 min at 4° C.
4. Pool supernatants, remove an aliquot for protein determination.
5. Quick freeze pooled sample in dry ice/ethanol bath. This step is performed regardless of whether lysate will be stored overnight or used immediately following protein determination.
6. Perform protein determination using standard bicinchoninic acid (BCA) method (BCA Assay Reagent Kit from Pierce Chemical Cat. # 23225).
1. Coat Corning 96 well ELISA plates with 5 μg per well Goat anti-Rabbit antibody in Carbonate Buffer for a total well volume of 50 μl. Store overnight at 4° C. […]
Consider `Cc1c(Br)cc(Br)c2c1C(=Cc1ccc(C#N)cc1)C(=O)N2` [10727/H09], for which the “Met Kinase % Inhibition (P.130)” value was determined as 31.1%.
Next, `Cc1c(Br)cc(Br)c2c1C(=Cc1c[nH]c(=O)[nH]c1=O)C(=O)N2` [10731/H08]: 10.9%; `Cc1[nH]c(C=C2C(=O)Nc3c(Br)cc(Br)c(C)c32)c(Br)c1Br` [10717/H11]: 58.2%.
Next, `Cc1c(Br)cc(Br)c2c1C(=CC1C=CCCC1)C(=O)N2` (stereo not shown) [10729/H11]: 36.1%; `CCc1ccc(C=C2C(=O)Nc3c(Br)cc(Br)c(C)c32)s1` [10726/H10]: 45.7%.
As for `Cc1ccsc1C=C1C(=O)Nc2c(Br)cc(Br)c(C)c21` [10729/H05], the figure is 27.9%; as for `COc1cc(N(C)C)ccc1C=C1C(=O)Nc2c(Br)cc(Br)c(C)c21` [10728/H05], 41.2% and 33.9%.
Take `Cc1c(Br)cc(Br)c2c1C(=Cc1ccc(-c3ccccc3Cl)o1)C(=O)N2` [10730/H07]: the “Met Kinase % Inhibition (P.130)” value is given as 38.7%.
Next, `Cc1cc(C=C2C(=O)Nc3c(Br)cc(Br)c(C)c32)oc1C` [10730/H11]: 32.6%; `Cc1c(Br)cc(Br)c2c1C(=Cc1cc(Cl)cc(Br)c1O)C(=O)N2` [10727/H04]: 81.7%; `COc1c(O)ccc(C=C2C(=O)Nc3c(Br)cc(Br)c(C)c32)c1[N+](=O)[O-]` [10733/H11]: 76.7%.
Next, `COc1cccc(C=C2C(=O)Nc3c(Br)cc(Br)c(C)c32)c1OC` [10727/H11]: 17.9%.
Next, `COc1cccc(O)c1C=C1C(=O)Nc2c(Br)cc(Br)c(C)c21` [10717/H10]: 52.3%; `COc1cc(C=C2C(=O)Nc3c(Br)cc(Br)c(C)c32)cc(OC)c1OC` [10730/H04]: 37.1%; `CC(=O)n1cc(C=C2C(=O)Nc3c(Br)cc(Br)c(C)c32)c2ccccc21` [10730/H05]: 30.7%.
For the compound `COc1c(C(C)(C)C)cc(C=C2C(=O)Nc3c(Br)cc(Br)c(C)c32)cc1C(C)(C)C` [10733/H04], the “Met Kinase % Inhibition (P.130)” value amounted to 11.9%.
As for `Cc1c(Br)cc(Br)c2c1C(=Cc1cc(C(C)C)c(Oc3ccccc3)c(C(C)C)c1)C(=O)N2` [10732/H04], the figure is 57.6%; as for `Cc1c(Br)cc(Br)c2c1C(=Cc1ccc(N3CCCC3)cc1)C(=O)N2` [10729/H10], 12.8%; as for `COc1c(C)cc(C=C2C(=O)Nc3c(Br)cc(Br)c(C)c32)cc1C` [10733/H06], 18.4%.
Next, `Cc1ccc2occ(C=C3C(=O)Nc4c(Br)cc(Br)c(C)c43)c(=O)c2c1` [10731/H06]: 17.2%; `COc1c([N+](=O)[O-])cc(C=C2C(=O)Nc3c(Br)cc(Br)c(C)c32)cc1C(C)(C)C` [10733/H03]: 0.6%.
As for `COc1cc(C=C2C(=O)Nc3c(Br)cc(Br)c(C)c32)cc2c1OCO2` [10728/H11], the figure is 8.0%; as for `COc1cc(C=C2C(=O)Nc3c(Br)cc(Br)c(C)c32)cc(OC)c1` [10728/H04], 32.9%.
With `Cc1c(Br)cc(Br)c2c1C(=Cc1cc3ccccc3nc1Cl)C(=O)N2` [10730/H08], the “Met Kinase % Inhibition (P.130)” value was 57.8%.
Next, `COc1ccc(C=C2C(=O)Nc3c(Br)cc(Br)c(C)c32)c(OC)c1OC` [10730/H02]: 32.0%.
Next, `Cc1c(Br)cc(Br)c2c1C(=Cc1ccc[nH]1)C(=O)N2` [10717/H09]: 8.8%; `Cc1c(Br)cc(Br)c2c1C(=Cc1ccccc1OCC(=O)O)C(=O)N2` [10728/H10]: 65.2%; `Cc1c(Br)cc(Br)c2c1C(=Cc1ccccc1Sc1ccc(Cl)cc1)C(=O)N2` [10727/H05]: 20.6%.
